Reference: patent US20250059509A1, “METHOD FOR PRODUCING MACROPHAGES, DIFFERENTIATION INDUCING AGENT, DIFFERENTIATION INDUCTION KIT, METHOD FOR CULTURING MACROPHAGES, AGENT FOR PROMOTING MACROPHAGE PROPAGATION, KIT FOR PROMOTING MACROPHAGE PROLIFERATION, METHOD FOR MACROPHAGE PROLIFERATION, AND MACROPHAGES” (Kagoshima University, priority 2021, published 2025)

B1: macrophage colony-stimulating factor (protein, UniProt P07141 33-552, looked up)
Macrophage colony-stimulating …: KEVSEHCSHMIGNGHLKVLQQLIDSQMETSCQIAFEFVDQEQLDDPVCYLKKAFFLVQDIIDETMRFKDNTPNANATERLQELSNNLNSCFTKDYEEQNKACVRTFHETPLQLLEKIKNFFNETKNLLEKDWNIFTKNCNNSFAKCSSRDVVTKPDCNCLYPKATPSSDPASASPHQPPAPSMAPLAGLAWDDSQRTEGSSLLPSELPLRIEDPGSAKQRPPRSTCQTLESTEQPNHGDRLTEDSQPHPSAGGPVPGVEDILESSLGTNWVLEEASGEASEGFLTQEAKFSPSTPVGGSIQAETDRPRALSASPFPKSTEDQKPVDITDRPLTEVNPMRPIGQTQNNTPEKTDGTSTLREDHQEPGSPHIATPNPQRVSNSATPVAQLLLPKSHSWGIVLPLGELEGKRSTRDRRSPAELEGGSASEGAARPVARFNSIPLTDTGHVEQHEGSSDPQIPESVFHLLVPGIILVLLTVGGLLFYKWKWRSHRDPQTLDSSVGRPEDSSLTQDEDRQVELPV

Tests used:
TREM2 = experiment: Ligand activity using TREM2 reporter cells (GFP-positive cells by flow cytometry); conditions: plate coated with 1 μg test substance per well; reporter cells cultured 16 hours; FIG. 9
Method: Using a retroviral vector, TREM2 and DAP12 cDNAs were introduced into 2B4-NFAT-GFP reporter cells (obtained from RIKEN), to prepare reporter cells in which binding of a ligand to TREM2 expressed on the cell surface induces expression of GFP (Iizasa and others, Nature Communications, 2021, vol. 12 (1), p. 2299-16).
As a test substance, β-GluCer, α-GalCer, palmitic acid, stearic acid, cholesterol, PC, LPC, PE, Sulf, or MA was diluted with methanol to 50 μg/ml. The test substance was aliquoted in 20-μl (1-μg) portions into a 96-well cell culture plate, and then the plate was left to stand in a clean bench, to evaporate the methanol.
In the culture plate coated with the test substance, the reporter cells were plated at 5×10^4 cells/100 μl/well. The cells were cultured in a CO2 incubator for 16 hours. The culture was suspended well, and transferred to a V-bottom 96-well plate. The sample was centrifuged at 500 G at 4° C. for 5 minutes, and then the supernatant was discarded. The sample was suspended by adding 50 μl/well of 10 μg/ml PI/1% FBS/HBSS. GFP-positive cells in the sample were analyzed by flow cytometry.

mouse bone marrow cells = experiment: Induction of differentiation of mouse bone marrow cells with each test substance, viable cells by WST-8 assay; format: cell-based; conditions: plate coated with 1 μg test substance per well; WST-8 on Days 5, 10, 14 and 20; FIG. 10
Method: To fresh 10% FBS/RPMI medium, 1/10 volume of WST-8 (07553-15 Cell Count Reagent SF, manufactured by Nacalai Tesque Inc.) was added to prepare a medium for counting the number of viable cells. The old medium in the culture plate was removed by aspiration, and the medium for counting the number of viable cells was dispensed at 100 μl/well. The cells were cultured at 37° C. in a 5% CO2 incubator for 1 hour. The absorbance at 450 nm was measured using a microplate reader.
A 96-well cell culture plate was coated with each test substance in the same manner as described above, and mouse bone marrow cells were plated in the plate at 4×10^4 cells/100 μl/well.

LIMs and BMDMs = experiment: Cryopreservation test of LIMs and BMDMs; format: cell-based, mouse; conditions: −80° C. for thirty days; 25 ng/ml M-CSF; viable cells Day 6 or Day 14; FIG. 6
Method: LIMs and BMDMs at 80 to 90% confluence were detached from culture plates, and separately centrifuged at 500 G for 5 minutes, followed by discarding the supernatant. In a CELLBANKER 1 (manufactured by Nippon Zenyaku Kogyo Co., Ltd.), the cells were suspended at 5×10^5 to 5×10^6 cells per 1 ml, and the resulting suspension was transferred to a CryoTube, and stored at −80° C. Thirty days later, the cells were thawed, and plated in a 24-well plate without stimulation (None), with addition of 25 ng/ml M-CSF (M-CSF), or with brain lipid coating (BL). The number of viable cells on Day 6 or Day 14 after the plating was counted using a hemocytometer.

Molecule	ligand activity for TREM2 (TREM2)	differentiation of bone marrow cells into LIMs (mouse bone marrow cells)	proliferation of BMDMs thawed after cryopreservation (LIMs and BMDMs)
CCCCCCCCCCCCCCCCCCCCCCCCCC(=O)N[C@@H](CO[C@H]1O[C@H](CO)[C@H](O)[C@H](O)[C@H]1O)[C@H](O)[C@H](O)CCCCCCCCCCCCCC [α-GalCer, α-galactosylceramide]	have ligand activity for TREM2	induced differentiation of the bone marrow cells into LIMs	–
lysophosphatidylcholine [LPC]	have ligand activity for TREM2	induced differentiation of the bone marrow cells into LIMs	–
mycolic acid [MA]	have ligand activity for TREM2	induced differentiation of the bone marrow cells into LIMs	–
phosphatidylcholine [PC]	have ligand activity for TREM2	induced differentiation of the bone marrow cells into LIMs	–
phosphatidylethanolamine [PE]	have ligand activity for TREM2	induced differentiation of the bone marrow cells into LIMs	–
sulfatide	have ligand activity for TREM2	induced differentiation of the bone marrow cells into LIMs	–
β-glucosylceramide [β-GluCer]	have ligand activity for TREM2	induced differentiation of the bone marrow cells into LIMs	–
B1	–	–	did not proliferate
